Test systems include Candida albicans AY93025; Acinetobacter baumannii; Escherichia coli AB94012; Klebsiella pneumoniae; Serratia marcescens; Nocardia asteroides; Bacillus anthracis; Escherichia coli; Bacillus cereus; Staphylococcus aureus; Escherichia coli ML-35p.
Holding throughout (assay): ≥ marks a high value that may be exact or a test limit, other limits are often not marked, values filed in µg/mL are converted to µM
Experiment [1] relates to Bacillus subtilis ATCC 9372.
For experiment [2], the system named is Pseudomonas aeruginosa ATCC 9027.
Experiment [3] has as its system Staphylococcus aureus ATCC 6538.
Experiment [4] concerns Proteus vulgaris NCTC 4635.
In experiment [5] the test system is Escherichia coli ATCC 8739.
Experiment [6] deals with Candida albicans NCPF 1467.
For experiment [7], the system named is Staphylococcus aureus NCTC 10788.
Experiment [8] has as its system Staphylococcus aureus S015.
Experiment [9] deals with Staphylococcus aureus ATCC 33591.
Experiment [10] has as its system Escherichia coli NCTC 10418.
Experiment [11] relates to Enterococcus faecalis ATCC 29212.
The subject of experiment [12] is Staphylococcus aureus AB94004.
The test system of experiment [13] is Staphylococcus aureus ATCC 25923.
Experiment [14] has as its system Bacillus thuringiensis AB92037.
For experiment [15], the system named is Escherichia coli ATCC 35218.
For experiment [16], the system named is Staphylococcus aureus ATCC 29213.
The subject of experiment [17] is Pseudomonas aeruginosa AB93066.
Experiment [18] deals with Klebsiella pneumoniae ATCC 700603.
Experiment [19] concerns Pseudomonas aeruginosa ATCC 27853.
The subject of experiment [20] is Staphylococcus aureus P1369.
Experiment [21] relates to Acinetobacter baumannii ATCC 19606.
In experiment [22] the test system is Escherichia coli ATCC 25922.
Experiment [23] concerns Micrococcus luteus AB93113.
Experiment [24] concerns Staphylococcus aureus P1386.
The test system of experiment [25] is Bacillus subtilis AB91021.
The test system of experiment [26] is Staphylococcus aureus P1374.
Experiment [27] has as its system Staphylococcus epidermidis P1389.
For experiment [28], the system named is Staphylococcus aureus ATCC 2592.
The subject of experiment [29] is Pseudomonas aeruginosa PAO1.
Experiment [30] relates to Staphylococcus aureus ATCC 43300.
The test system of experiment [31] is Pseudomonas aeruginosa 08031014.
Experiment [32] deals with Candida albicans ATCC 20032.
Experiment [33] concerns Bacillus subtilis ATCC 6633.

Values after ≈ are worked out from the molar mass of the structure shown. Values joined by “and” are separate entries in the source; they are usually repeats but may differ in a detail not shown here. Equal values may be shown once. A value given as a limit tells only on which side of the number the result lay.

For the compound `CC[C@H](C)[C@H](NC(=O)[C@@H](NC(=O)[C@H](CO)NC(=O)[C@H](C)NC(=O)[C@@H](NC(=O)[C@H](CCCCN)NC(=O)[C@H](CCCCN)NC(=O)[C@@H](NC(=O)[C@@H](NC(=O)[C@@H](N)CC(=O)O)C(C)C)[C@@H](C)CC)C(C)C)C(C)C)C(=O)NCC(=O)O` [DVIKKVASVIG], the MIC in experiment [1] is at least 908 µM; in experiment [2], over 908 µM; in experiment [3] it was over 908 µM; in experiment [4] it was at least 908 µM; in experiment [5], at least 908 µM.
Consider `CC[C@H](C)[C@H](NC(=O)[C@H](CC(C)C)NC(=O)CNC(=O)[C@@H]1CCCN1C(=O)[C@@H](NC(=O)[C@H](CCSC)NC(=O)CNC(=O)[C@H](CC(C)C)NC(=O)[C@@H](N)Cc1ccccc1)[C@@H](C)CC)C(=O)NCC(=O)NCC(=O)N[C@@H](CC(C)C)C(=O)N[C@H](C(=O)N[C@@H](CO)C(=O)N[C@@H](C)C(=O)N[C@@H](Cc1ccccc1)C(=O)N[C@@H](CCCCN)C(=O)O)[C@@H](C)CC` [FLGMIPGLIGGLISAFK], for which the MIC in [6] is 10 µM (≈ 17.3 µg/mL); in [7] it was 5 µM (≈ 8.67 µg/mL); in [8], 9.98 µM (≈ 17.3 µg/mL); in experiment [9], 9.98 µM (≈ 17.3 µg/mL); in experiment [10], at least 320 µM; in experiment [11] it was 39.9 µM (≈ 69.2 µg/mL).
For the compound `CC[C@H](C)[C@H](NC(=O)[C@H](C)NC(=O)CNC(=O)[C@@H]1CCCN1C(=O)[C@@H](NC(=O)[C@H](CC(C)C)NC(=O)CNC(=O)[C@H](Cc1c[nH]c2ccccc12)NC(=O)[C@H](CC(C)C)NC(=O)[C@@H](N)Cc1ccccc1)[C@@H](C)CC)C(=O)N[C@@H](CO)C(=O)N[C@@H](C)C(=O)N[C@H](C(=O)N[C@H](C(=O)N[C@@H](CO)C(=O)N[C@@H](CC(C)C)C(=O)N[C@H](C(=O)N[C@@H](CCCCN)C(=O)N[C@@H](CCCCN)C(N)=O)[C@@H](C)CC)[C@@H](C)O)C(C)C` [FLWGLIPGAISAVTSLIKK], the MIC is 2.48 µM (≈ 5 µg/mL) in [12]; 15.9 µM (≈ 32 µg/mL) in experiment [13]; 4.96 µM (≈ 10 µg/mL) in experiment [14]; 31.8 µM (≈ 64 µg/mL) in experiment [15]; 7.94 µM (≈ 16 µg/mL) in experiment [16]; at least 49.6 µM in experiment [17]. In addition, the MIC in [18] was over 31.8 µM; in [19], over 31.8 µM; in the experiment with Candida albicans AY93025, 9.93 µM (≈ 20 µg/mL); in experiment [20], 4.96 µM (≈ 10 µg/mL); with Acinetobacter baumannii, 14.4 µM (≈ 29.1 µg/mL); in experiment [21], 9.93 µM and 7.94 µM. Further, the MIC in [22] is 31.8 µM (≈ 64 µg/mL); in [23] it was 2.48 µM (≈ 5 µg/mL); in [24], 4.96 µM (≈ 10 µg/mL); against Escherichia coli AB94012, at least 49.6 µM; in experiment [25] it was 4.96 µM (≈ 10 µg/mL); in experiment [26] it was 4.96 µM (≈ 10 µg/mL). The MIC worked out at 31.8 µM (≈ 64 µg/mL) in experiment [11] and 4.96 µM (≈ 10 µg/mL) in experiment [27].
For the compound `CC[C@H](C)[C@@H]1NC(=O)[C@H](CCCCN)NC(=O)[C@@H](NC(=O)[C@H](CCSC)NC(=O)[C@@H](NC(=O)[C@H](CC(C)C)NC(=O)[C@@H]2CCCN2C(=O)[C@H](CC(C)C)NC(=O)[C@@H](NC(=O)[C@@H](N)Cc2ccccc2)C(C)C)C(C)C)CSSC[C@@H](C(=O)O)NC(=O)[C@H](CCCCN)NC(=O)[C@H](CCCN=C(N)N)NC(=O)[C@H](CC(C)C)NC1=O` [FVLPLVMCKILRKC], the MIC in the experiment on Klebsiella pneumoniae was over 60.1 µM; in the experiment on Serratia marcescens, at least 60.1 µM; against Nocardia asteroides, 5.64 µM (≈ 9.37 µg/mL); in experiment [22], over 60.1 µM; in experiment [28], 5.64 µM (≈ 9.37 µg/mL).
As for `CC[C@H](C)[C@H](NC(=O)[C@H](Cc1ccccc1)NC(=O)[C@@H](NC(=O)[C@@H](N)CCCCN)C(C)C)C(=O)N[C@@H](C)C(=O)N[C@H](C(=O)N[C@@H](CC(C)C)C(=O)N[C@H](C(=O)N[C@H](C(=O)N[C@@H](CO)C(=O)N[C@@H](CO)C(=O)N[C@@H](Cc1ccccc1)C(=O)N[C@@H](CC(C)C)C(=O)N[C@@H](CC(C)C)C(=O)N[C@@H](C)C(=O)N[C@@H](CCCCN)C(=O)N1CCC[C@H]1C(=O)N1CCC[C@H]1C(=O)N[C@@H](CCCN=C(N)N)C(=O)N[C@H](C(=O)O)C(C)C)C(C)C)C(C)C)[C@@H](C)O` [KVFIATLVVSSFLLAKPPRV], the MIC in the experiment with Bacillus anthracis is at least 117 µM; in the experiment on Escherichia coli, over 117 µM; in the experiment with Bacillus cereus, at least 117 µM; in the experiment on Staphylococcus aureus, over 117 µM.
For `CC[C@H](C)[C@H](NC(=O)[C@H](CCCCN)NC(=O)[C@@H](NC(=O)[C@H](Cc1c[nH]c2ccccc12)NC(=O)[C@H](CS)NC(=O)[C@H](CCCNC(=N)N)NC(=O)[C@@H]1CCCN1C(=O)[C@@H](N)CCCNC(=N)N)[C@@H](C)CC)C(=O)N[C@@H](CCCCN)C(=O)N[C@@H](Cc1ccccc1)C(=O)N[C@@H](CCCNC(=N)N)C(=O)N[C@@H](CS)C(=O)N[C@@H](CCCCN)C(=O)N[C@@H](CO)C(=O)N[C@@H](CC(C)C)C(=O)N[C@@H](CCCCN)C(=O)N[C@@H](Cc1ccccc1)C(=O)O` [RPRCWIKIKFRCKSLKF], the MIC in experiment [13] was 4.24 µM (≈ 9.38 µg/mL); in experiment [29], 4.24 µM (≈ 9.38 µg/mL); in experiment [30] it was 4.24 µM (≈ 9.38 µg/mL); against Escherichia coli ML-35p, 17 µM (≈ 37.5 µg/mL); against Escherichia coli, 24 µM (≈ 53 µg/mL); in [19], 8.48 µM (≈ 18.8 µg/mL). Besides, the MIC in experiment [31] is 17 µM (≈ 37.5 µg/mL); in experiment [32], 8.48 µM (≈ 18.8 µg/mL); in experiment [22], 17 µM (≈ 37.5 µg/mL); in experiment [33] it was at least 45.3 µM.

These data come from DBAASP.
